Laboratory results: EP4015040A1, “METHOD FOR TREATING BLOOD DISEASES” (Fundación para la Formación e Investigación Sanitarias de …, priority 2020, dated 2022)

Target: T1, telomerase (Danio rerio, UniProt A2THE9)
T1 sequence (A2THE9 1-1098): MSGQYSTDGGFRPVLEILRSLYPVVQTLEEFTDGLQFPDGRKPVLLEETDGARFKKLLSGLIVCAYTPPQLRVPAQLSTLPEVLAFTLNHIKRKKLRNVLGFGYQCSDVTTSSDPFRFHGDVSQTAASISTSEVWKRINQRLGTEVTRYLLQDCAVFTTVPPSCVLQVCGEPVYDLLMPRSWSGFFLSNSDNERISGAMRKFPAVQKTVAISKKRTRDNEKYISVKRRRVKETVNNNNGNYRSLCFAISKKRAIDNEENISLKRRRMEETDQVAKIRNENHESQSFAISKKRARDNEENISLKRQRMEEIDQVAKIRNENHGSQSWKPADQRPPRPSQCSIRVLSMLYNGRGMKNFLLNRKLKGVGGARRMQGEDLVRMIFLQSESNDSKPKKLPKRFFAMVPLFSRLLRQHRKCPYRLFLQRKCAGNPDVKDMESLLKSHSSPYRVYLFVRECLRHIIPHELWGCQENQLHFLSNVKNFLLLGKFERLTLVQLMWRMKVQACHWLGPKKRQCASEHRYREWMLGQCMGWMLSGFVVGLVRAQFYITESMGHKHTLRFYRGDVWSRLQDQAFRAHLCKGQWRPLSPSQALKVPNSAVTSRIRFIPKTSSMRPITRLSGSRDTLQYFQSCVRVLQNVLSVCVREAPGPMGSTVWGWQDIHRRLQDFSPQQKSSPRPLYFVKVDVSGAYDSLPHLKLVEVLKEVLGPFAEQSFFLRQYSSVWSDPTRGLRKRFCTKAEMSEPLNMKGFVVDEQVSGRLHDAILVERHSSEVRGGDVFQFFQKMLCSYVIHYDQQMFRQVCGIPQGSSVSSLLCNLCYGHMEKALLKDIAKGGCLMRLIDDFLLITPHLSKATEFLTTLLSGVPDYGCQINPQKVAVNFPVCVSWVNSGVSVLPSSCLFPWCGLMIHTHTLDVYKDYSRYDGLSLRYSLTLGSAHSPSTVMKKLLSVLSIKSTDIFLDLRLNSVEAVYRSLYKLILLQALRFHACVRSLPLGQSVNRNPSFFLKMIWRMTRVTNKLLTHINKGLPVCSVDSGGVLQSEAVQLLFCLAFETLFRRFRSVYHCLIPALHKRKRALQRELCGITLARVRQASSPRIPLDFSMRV
Test: Telomerase activity assay (Q-TRAP) in protein extracts of microinjected larvae
Assay type: in vivo
Settings: zebrafish; 20 µM microinjected, larvae collected at 48 hpf; read-out: reduction of telomerase activity

Compound: C/C(=C\C(=O)Nc1ccccc1C(=O)O)c1ccc2ccccc2c1 [BIBR1532]
- inhibition at 20 µM: > 50%
